Results on 7 compounds are retold here after patent publication US7049344B2 (Wilex Biotechnology GmbH, priority 2000, dated 2006).

Series [1] has as its target T1, Trypsin (UniProt P00760).
T1 sequence (P00760 1-246): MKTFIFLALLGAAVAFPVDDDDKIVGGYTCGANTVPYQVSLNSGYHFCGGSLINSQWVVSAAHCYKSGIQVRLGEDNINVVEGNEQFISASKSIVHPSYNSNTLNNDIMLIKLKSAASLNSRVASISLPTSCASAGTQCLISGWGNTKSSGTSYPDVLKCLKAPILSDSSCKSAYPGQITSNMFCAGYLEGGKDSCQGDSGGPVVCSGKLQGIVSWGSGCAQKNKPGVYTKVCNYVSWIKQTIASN
Briefly: In-vitro protease inhibition, chromogenic substrate, Dixon Ki. Format: biochemical. Conditions: 25° C, pH 8.0; read-out: K1 Trypsin. The procedure:
(§1) The uPA inhibitor activity was determined by incubating 200 μl of Tris buffer (0.05 mol/l, containing the inhibitor, 0.154 mol/l NaCl, 5% ethanol, pH 8.0), 25 μl of substrate (Pefachrome UK or BZ-β-Ala-Gly-Arg-pNA in H2O; Pentapharm Ltd, Basle, Switzerland) and 50 μl of sc-urokinase (Ribosepharm GmbH, Haan, Germany) or another corresponding protease at 25° C. After 3 min, the reaction was interrupted by adding 25 μl of acetic acid (50%) and absorbance at 405 nm was determined by means of a microplate reader (MR 5000, Dynatech, Denkendorf, Germany). The Ki values were determined by linear regression according to Dixon by means of a computer program. The Ki values are the average of at least three determinations, and the standard deviation was below 25%.

Series [2] deals with FXA (UniProt P00743). The description is as above. Format: biochemical. Conditions: 25° C, pH 8.0; read-out: K1 FXA. How it is done: as §1
For series [3], the target named is Plasmin (Homo sapiens, UniProt P00747). The series is described as above. Format: biochemical. The conditions noted are these: 25° C, pH 8.0; read-out: K1 Plasmin. The procedure:
as §1

For series [4], the target named is Thrombin (UniProt P00735). The description is as above. Format: biochemical. The conditions noted are these: 25° C, pH 8.0; read-out: K1 Thrombin. The procedure:
as §1

Series [5] has as its target T2, uPA (sc-urokinase) (Homo sapiens, UniProt P00749).
T2 construct: purchased Ribosepharm GmbH, Haan, Germany
Briefly: In-vitro inhibition of urokinase, chromogenic substrate, Dixon Ki. Format: biochemical. The conditions noted are these: 25° C, pH 8.0; average of at least three determinations; read-out: K1 uPA. How it is done:
as §1

For series [6], the system named is rat breast adenocarcinoma cells. Conditions: after i.v. inoculation of rat breast adenocarcinoma cells; cited from earlier work.
The subject of series [7] is rat prostate cancer. Conditions: syngeneic model of rat prostate cancer; cited from earlier work.
In series [8] the test system is mouse breast cancer. Conditions: cited from earlier work.
In series [9] the test system is DU145 tumors (a prostate adenocarcinoma cell line). The conditions noted are these: SCID mice, oral, daily dose of 125 to 250 mg/kg/day; cited from earlier work.

Counter-ions that a name gives are not always drawn. A value given as a limit tells only on which side of the number the result lay.

Chain of Plasmin (P00747 581-810 limits assumed, species assumed): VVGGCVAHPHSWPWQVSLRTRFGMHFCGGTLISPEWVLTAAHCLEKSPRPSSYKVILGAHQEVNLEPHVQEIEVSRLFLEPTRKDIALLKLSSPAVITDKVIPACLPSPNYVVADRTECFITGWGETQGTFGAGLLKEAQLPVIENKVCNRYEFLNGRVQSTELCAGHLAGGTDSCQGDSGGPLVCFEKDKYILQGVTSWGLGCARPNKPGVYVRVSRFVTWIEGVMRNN
Chain of Plasmin (P00747 97-580 partner limits assumed, species assumed): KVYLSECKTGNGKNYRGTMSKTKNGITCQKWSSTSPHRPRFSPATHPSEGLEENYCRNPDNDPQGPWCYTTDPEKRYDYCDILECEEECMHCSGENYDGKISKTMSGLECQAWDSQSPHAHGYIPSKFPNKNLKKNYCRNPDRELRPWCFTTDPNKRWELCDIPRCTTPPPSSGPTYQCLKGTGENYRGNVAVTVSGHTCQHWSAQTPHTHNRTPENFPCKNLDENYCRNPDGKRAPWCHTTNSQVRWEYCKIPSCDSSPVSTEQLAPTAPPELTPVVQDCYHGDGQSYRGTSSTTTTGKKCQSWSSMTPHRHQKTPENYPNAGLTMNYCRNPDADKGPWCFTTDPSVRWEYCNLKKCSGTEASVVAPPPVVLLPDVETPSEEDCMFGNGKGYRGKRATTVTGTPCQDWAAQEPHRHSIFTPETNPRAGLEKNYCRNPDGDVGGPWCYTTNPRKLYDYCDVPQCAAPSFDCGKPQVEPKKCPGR

As for `N=C(N)Nc1ccc(CNC(=O)[C@@H](CO)c2ccccc2)cc1` (racemic) [ST-390, N-(4-guanidinobenzyl)-D,L-tropamide Hydrochloride], the Ki in series [1] was > 1000 µM; in series [2], > 1000 µM; in series [3], > 1000 µM; in series [4] it was > 1000 µM; in [5] it was 51 µM.
Turning to `N=C(N)NC(=O)c1nc(Cl)c(N)nc1N` [Amiloride], the “formation of lung metastases” value in series [6] is given as “prevents the formation of lung metastases”.
As to `N=C(N)c1cc2c(I)cccc2s1` [B428, 4-iodobenzo[b]thiophene-2-carboxamidine], the “tumor growth and metastases formation” value in series [7] was “decrease of tumor growth and metastases formation”; in series [8] (syngeneic model of mouse breast cancer) it was “decrease of tumor growth and metastases formation”. Further, the primary tumor growth entry in series [8] (B428 administered together with the antiestrogen tamoxifen) is reported as “further decrease in primary tumor growth”.
For `N=C(N)Nc1ccc(CNC(=O)C(C(=O)OCc2ccccc2)C23CC4CC(CC(C4)C2)C3)cc1` (centres unmarked) [ST-100], in series [5], the Ki is < 1 µM.
For `N=C(N)Nc1ccc(CNC(=O)C(C(=O)OCc2ccccc2)c2ccccc2)cc1` (centres unmarked) [ST-401, N-(4-guanidinobenzyl) 2-(benzyloxycarbonyl)-2-phenylacetamide hydrochloride], the Ki is > 1000 µM in series [2], > 1000 µM in [3], > 1000 µM in series [4] and 1.4 µM in series [5].
Take `N=C(N)Nc1ccc(CNC(=O)C(C(=O)O)c2ccccc2)cc1` (centres unmarked) [ST-406, N-(4-guanidinobenzyl) 2-(hydroxycarbonyl)-2-phenylacetamide Hydrochloride]: the Ki in series [5] was < 10 µM.
On to `N=C(N)c1ccc(N)cc1` [p-Aminobenzamidine], for which, in series [9], the “growth rate of DU145 tumors” value is given as “distinct decrease” and the side effects result is on record as “negligible”.
